Assay results published in ChEMBL document CHEMBL1136919, “Synthesis and P2Y receptor activity of nucleoside 5'-phosphonate derivatives” (Bioorg Med Chem Lett, 2009).

How the values were obtained:
Assay type in all cases: functional, cell-based
P2Y purinoceptor 2 [1] = target: T1, P2Y purinoceptor 2 (Homo sapiens, UniProt P41231); assay: Agonist activity at human P2Y2 receptor expressed in human 1321N1 cells coexpressing phospholipase C-activating G protein assessed as inositol phosphate production by scintillation proximity assay
P2Y purinoceptor 6 [2] = target: T2, P2Y purinoceptor 6 (Homo sapiens, UniProt Q15077); assay: Agonist activity at human P2Y6 receptor expressed in human 1321N1 cells coexpressing phospholipase C-activating G protein assessed as inositol phosphate production at 10 uM by scintillation proximity assay
[3] = target: P2Y purinoceptor 4 (Homo sapiens) (UniProt P51582); assay: Agonist activity at human P2Y4 receptor expressed in human 1321N1 cells coexpressing phospholipase C-activating G protein assessed as inositol phosphate production at 10 uM by scintillation proximity assay
P2Y purinoceptor 2 [4] = target: T1, P2Y purinoceptor 2; assay: Agonist activity at human P2Y2 receptor expressed in human 1321N1 cells coexpressing phospholipase C-activating G protein assessed as inositol phosphate production by scintillation proximity assay relative to UTP
P2Y purinoceptor 6 [5] = target: T2, P2Y purinoceptor 6; assay: Agonist activity at human P2Y6 receptor expressed in human 1321N1 cells coexpressing phospholipase C-activating G protein assessed as inositol phosphate production by scintillation proximity assay
P2Y purinoceptor 2 [6] = target: T1, P2Y purinoceptor 2; assay: Agonist activity at human P2Y2 receptor expressed in human 1321N1 cells coexpressing phospholipase C-activating G protein assessed as inositol phosphate production at 10 uM by scintillation proximity assay

T1 sequence (P41231 whole entry): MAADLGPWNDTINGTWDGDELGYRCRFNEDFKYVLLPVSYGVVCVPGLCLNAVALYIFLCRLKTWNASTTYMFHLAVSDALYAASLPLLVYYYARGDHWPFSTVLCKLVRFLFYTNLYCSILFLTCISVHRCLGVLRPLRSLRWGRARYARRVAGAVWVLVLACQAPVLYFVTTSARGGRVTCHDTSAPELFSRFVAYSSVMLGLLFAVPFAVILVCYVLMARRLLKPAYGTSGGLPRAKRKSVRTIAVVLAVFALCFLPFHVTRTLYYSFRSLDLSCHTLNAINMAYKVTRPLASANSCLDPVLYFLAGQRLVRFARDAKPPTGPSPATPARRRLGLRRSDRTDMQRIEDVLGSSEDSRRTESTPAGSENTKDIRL
Chain of P2Y purinoceptor 4 (Homo sapiens) (P51582 whole entry): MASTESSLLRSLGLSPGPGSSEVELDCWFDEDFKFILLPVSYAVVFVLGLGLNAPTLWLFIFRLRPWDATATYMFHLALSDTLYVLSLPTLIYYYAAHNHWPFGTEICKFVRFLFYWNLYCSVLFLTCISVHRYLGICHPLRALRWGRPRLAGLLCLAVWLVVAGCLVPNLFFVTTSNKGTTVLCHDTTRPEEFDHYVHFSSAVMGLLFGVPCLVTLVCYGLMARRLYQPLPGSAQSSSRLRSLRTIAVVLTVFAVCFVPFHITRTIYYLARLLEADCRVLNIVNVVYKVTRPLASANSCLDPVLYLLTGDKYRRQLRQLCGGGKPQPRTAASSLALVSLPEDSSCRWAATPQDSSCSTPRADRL
T2 sequence (Q15077 whole entry): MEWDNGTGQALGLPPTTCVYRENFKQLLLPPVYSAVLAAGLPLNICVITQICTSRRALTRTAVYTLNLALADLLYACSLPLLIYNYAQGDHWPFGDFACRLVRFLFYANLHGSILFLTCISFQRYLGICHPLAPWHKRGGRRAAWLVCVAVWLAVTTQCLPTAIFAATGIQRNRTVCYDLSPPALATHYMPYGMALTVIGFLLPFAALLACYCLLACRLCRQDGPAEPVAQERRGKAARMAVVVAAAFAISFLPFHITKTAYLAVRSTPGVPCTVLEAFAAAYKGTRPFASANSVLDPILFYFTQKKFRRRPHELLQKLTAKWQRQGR

Structure (SMILES): O=c1ccn([C@@H]2O[C@H](CP(=O)(O)OP(=O)(O)OP(=O)(O)O)[C@@H](O)[C@H]2O)c(=O)[nH]1
- EC50 (P2Y purinoceptor 2 [1]): 8600 nM

Structure (SMILES): O=c1ccn([C@@H]2O[C@H](COP(=O)(O)OP(=O)(O)OP(=O)(O)O)[C@@H](O)[C@H]2O)c(=O)[nH]1
- EC50 (P2Y purinoceptor 6 [2]): > 10000 nM

Structure (SMILES): Nc1ncnc2c1ncn2[C@@H]1O[C@H](CP(=O)(O)OP(=O)(O)OP(=O)(O)O)[C@@H](O)[C@H]1O
- EC50 (P2Y purinoceptor 2 [1]): 1400 nM
- Emax [3]: < 50%

Structure (SMILES): O=c1ccn([C@@H]2O[C@H](CP(=O)(O)OP(=O)(O)O)[C@@H](O)[C@H]2O)c(=O)[nH]1
- EC50 (P2Y purinoceptor 2 [1]): 3400 nM
- Activity (P2Y purinoceptor 2 [4]): 50%
- EC50 (P2Y purinoceptor 6 [5]): 1900 nM

Structure (SMILES): O=c1ccn([C@@H]2O[C@H](CCP(=O)(O)O)[C@@H](O)[C@H]2O)c(=O)[nH]1
- EC50 (P2Y purinoceptor 2 [1]): 1600 nM
- Activity (P2Y purinoceptor 2 [4]): < 50%

Structure (SMILES): O=c1ccn([C@@H]2O[C@H](/C=C/P(=O)(O)OP(=O)(O)OP(=O)(O)O)[C@@H](O)[C@H]2O)c(=O)[nH]1
- EC50 (P2Y purinoceptor 2 [1]): 1000 nM
- Emax [3]: < 50%

Structure (SMILES): O=c1ccn([C@@H]2O[C@H](COP(=O)(O)OP(=O)(O)C[C@H]3O[C@@H](n4ccc(=O)[nH]c4=O)[C@H](O)[C@@H]3O)[C@@H](O)[C@H]2O)c(=O)[nH]1
- Emax (P2Y purinoceptor 2 [6]): < 50%
